According to PubChem BioAssay AID504505 (The Scripps Research Institute Molecular Screening Center, 2011):

System: Abhydrolase domain-containing protein 11 (ABHD11), mouse
Assay: cellular mouse ABHD11 activity inhibitors – cell-based, gel-based fluorescent ABPP, selectivity assay for LYPLA1 inhibitor project, late-stage follow-up (AID 504505)
Conditions: mouse cells, ABHD11 labeling, at 0.03 µM, active compounds read high

inhibition: 100%
Compound: CCC1CCCCN1C(=O)n1ncc(C(O)(c2ccccc2)c2ccccc2)n1 (stereo unspecified)
